According to US12247004B2, “2-amino-N-(amino-oxo-aryl-lambda6-sulfanylidene)acetamide compounds and their therapeutic use” (Oxford Drug Design Limited, priority 2019, dated 2025):
Converted amounts (≈) assume the structure as drawn. Read-outs that look alike come from different tables or passages of the source.

How the values were obtained:
[1] = target: Leucyl-tRNA synthetase (LeuRS) (Escherichia coli (strain K12), UniProt P07813); assay: Leucyl-tRNA synthetase enzyme inhibition (AMP-Glo; single point % inhibition at 100 μM and IC50); format: biochemical
From the text: Study 1—Enzyme Inhibition
The aminoacylation reaction catalyzed by aminoacyl-tRNA synthetases (aaRS) takes place in two steps. In the first step, aaRS activates its cognate amino acid with ATP; and in the second step the activated amino acid is loaded to its corresponding tRNA. This reaction can be summarized as follows: aaRS+aa+ATP=aaRS-aa-AMP+PPi aaRS-aa-AMP+tRNA=aa-tRNA+AMP+aaRS
wherein: aaRS, aminoacyl-tRNA synthetase; aa, amino acid; aaRS-aa-AMP, enzyme-bound to aminoacyl-adenylate; AMP, adenosine monophosphate; aa-tRNA, aminoacyl-tRNA, PPi, inorganic pyrophosphate.
a. Single Point Percentage Inhibition
The activity of the pathogenic aaRSs was monitored by measuring AMP production using the commercial kit AMP-Glo (Promega, Madison, USA).
Ligand stock solutions were prepared in 100% DMSO at 10 mM concentration. An assay buffer consisting of 100 mM Tris HCl pH 7.6, 40 mM MgCl, 20 mM KCl and 150 mM NaCl was prepared in dH2O.
Using the same enzymatic assay in a 384-well plate format, ten point concentration response curves were generated for each compound using a top concentration of 10 μM. The known inhibitor LeuAMS was used as a positive control for the LeuRS assay. 100% DMSO was used as a negative control. The IC50 was calculated based on non-linear regression analysis.

[2] = tested on: bacteria (ATCC reference strains); assay: Antibacterial activity, MIC by broth micro-dilution (CLSI)
[3] = Escherichia coli, ATCC25922, read-out: Antibacterial Activity (MIC), A = E. coli ATCC 25922
[4] = Escherichia coli, BAA2469, read-out: Antibacterial Activity (MIC), G = E. coli BAA-2469
[5] = E. coli LeuRS, read-out: Enzyme Inhibition - IC50, E. coli LeuRS
[6] = Klebsiella pneumoniae, ATCC700603, read-out: Antibacterial Activity (MIC), C = K. pneumoniae ATCC 700603
[7] = Haemophilus influenzae, ATCC49247, read-out: Antibacterial Activity (MIC), F = H. influenzae ATCC 49247
[8] = Acinetobacter baumannii, read-out: Antibacterial Activity (MIC), E = A. baumannii B1931
[9] = Enterobacter cloacae, read-out: Antibacterial Activity (MIC), B = Enterobacter cloacae B1966
[10] = Pseudomonas aeruginosa, ATCC27853, read-out: Antibacterial Activity (MIC), D = P. aeruginosa ATCC 27853

Chain of Leucyl-tRNA synthetase (LeuRS) (P07813 whole entry, looked up): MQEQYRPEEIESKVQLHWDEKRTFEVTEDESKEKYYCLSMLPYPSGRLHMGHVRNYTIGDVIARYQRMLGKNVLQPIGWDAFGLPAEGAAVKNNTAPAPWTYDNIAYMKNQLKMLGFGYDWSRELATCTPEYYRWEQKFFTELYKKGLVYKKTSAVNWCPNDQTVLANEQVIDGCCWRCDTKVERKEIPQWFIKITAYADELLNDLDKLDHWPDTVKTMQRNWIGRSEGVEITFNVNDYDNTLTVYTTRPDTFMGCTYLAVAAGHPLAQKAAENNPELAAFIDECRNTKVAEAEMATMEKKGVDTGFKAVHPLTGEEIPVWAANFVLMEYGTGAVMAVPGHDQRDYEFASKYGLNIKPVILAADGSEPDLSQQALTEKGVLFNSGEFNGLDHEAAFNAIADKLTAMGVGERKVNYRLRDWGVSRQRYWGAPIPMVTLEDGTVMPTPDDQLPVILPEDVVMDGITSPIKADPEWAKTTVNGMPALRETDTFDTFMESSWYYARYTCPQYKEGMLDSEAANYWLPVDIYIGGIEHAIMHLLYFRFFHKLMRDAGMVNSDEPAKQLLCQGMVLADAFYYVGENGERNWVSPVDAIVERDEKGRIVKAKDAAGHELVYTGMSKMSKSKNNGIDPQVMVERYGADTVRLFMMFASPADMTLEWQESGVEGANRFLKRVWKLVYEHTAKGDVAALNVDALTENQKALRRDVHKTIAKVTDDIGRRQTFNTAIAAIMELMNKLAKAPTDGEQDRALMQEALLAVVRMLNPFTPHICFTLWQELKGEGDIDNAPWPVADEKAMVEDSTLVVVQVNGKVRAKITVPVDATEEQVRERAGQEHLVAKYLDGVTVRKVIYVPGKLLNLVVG

SMILES | IC50 [1] [nM] | MIC [2, 3] [µg/mL] | MIC [2, 4] [µg/mL] | IC50 [1, 5] [nM] | MIC [2, 6] [µg/mL] | further results
CC(=O)c1sccc1[S@@](N)(=O)=NC(=O)[C@@H](N)CC(C)C (single isomer, unassigned) [ANASIA-112-1] | 294 | 32 (≈ 101 µM) | 64 (≈ 202 µM) | – | – | –
CC(C)C[C@H](N)C(=O)N=S(N)(=O)c1csc(F)c1 (some centres unmarked) [ANASIA-060] | – | – | 16 (≈ 54.5 µM) | 227 | 32 (≈ 109 µM) | –
CC(C)C[C@H](N)C(=O)N=[S@](N)(=O)c1cc(F)cs1 [ANASIA-062-1] | 47.5 | – | 8 (≈ 27.3 µM) | – | 32 (≈ 109 µM) | –
CC(C)C[C@H](N)C(=O)N=S(N)(=O)c1cc(F)c(F)s1 (some centres unmarked) [ANASIA-063] | – | – | 64 (≈ 206 µM) | 223 | > 256 | –
CCOc1cccc(S(N)(=O)=NC(=O)[C@@H](N)CC(C)C)c1 (some centres unmarked) [ANASIA-066] | – | 64 (≈ 204 µM) | > 64 | 553 | – | –
CC(C)C[C@H](N)C(=O)N=S(N)(=O)c1sccc1-c1ccccc1 (some centres unmarked) [ANASIA-068] | – | 32 (≈ 91 µM) | > 64 | 141 | – | –
CC(C)C[C@H](N)C(=O)N=S(N)(=O)c1sccc1F (some centres unmarked) [ANASIA-070] | – | – | 32 (≈ 109 µM) | 143 | 64 (≈ 218 µM) | –
CC(C)C[C@H](N)C(=O)N=S(N)(=O)c1ccc(F)s1 (some centres unmarked) [ANASIA-071] | – | – | 8 (≈ 27.3 µM) | 173 | 32 (≈ 109 µM) | –
CC(C)C[C@H](N)C(=O)N=S(N)(=O)c1ccsc1F (some centres unmarked) [ANASIA-074] | – | – | 16 (≈ 54.5 µM) | 99.2 | 32 (≈ 109 µM) | –
CC(C)C[C@H](N)C(=O)N=[S@](N)(=O)c1ccccn1.Cl [ANASIA-075-1] | 420 | 32 | – | – | – | MIC [2, 7]: > 64 µg/mL
CC(C)C[C@H](N)C(=O)N=[S@](N)(=O)c1csc2ccccc12 [ANASIA-083-1] | – | 32 (≈ 98.3 µM) | – | 157 | – | MIC [2, 7]: 32 µg/mL (≈ 98.3 µM)
CC(C)C[C@H](N)C(=O)N=[S@](N)(=O)c1cccc(C(F)(F)F)c1.Cl [ANASIA-089-1] | 195 | 64 | – | – | – | MIC [2, 7]: 64 µg/mL
Cc1sccc1[S@@](N)(=O)=NC(=O)[C@@H](N)CC(C)C.Cl [ANASIA-091-1] | 847 | 64 | > 64 | – | – | –
Cc1cscc1[S@@](N)(=O)=NC(=O)[C@@H](N)CC(C)C.Cl [ANASIA-094-1] | 476 | 8 | 64 | – | 128 | –
Cc1csc([S@@](N)(=O)=NC(=O)[C@@H](N)CC(C)C)c1.Cl [ANASIA-095-1] | 29 | 0.794 | 2 | – | 10.1 | MIC [2, 8]: 8 µg/mL; MIC [2, 9]: 8 µg/mL; MIC [2, 10]: 32 µg/mL
Cc1cc([S@@](N)(=O)=NC(=O)[C@@H](N)CC(C)C)cs1.Cl [ANASIA-098-1] | 148 | 3.17 | 4 | – | 32 | MIC [2, 8]: 64 µg/mL; MIC [2, 9]: 16 µg/mL; MIC [2, 10]: 64 µg/mL
CC(C)C[C@H](N)C(=O)N=[S@](N)(=O)c1csc(Cl)c1.Cl [ANASIA-099-1] | 124 | 0.5 | 4 | – | 8 | MIC [2, 8]: 16 µg/mL; MIC [2, 9]: 4 µg/mL; MIC [2, 10]: 64 µg/mL
CC(C)C[C@H](N)C(=O)N=[S@](N)(=O)c1csc2ccsc12.Cl [ANASIA-100-1] | 27.8 | 1 | 5.66 | – | 45.3 | MIC [2, 8]: 16 µg/mL; MIC [2, 9]: 16 µg/mL; MIC [2, 10]: 64 µg/mL
CC(C)C[C@H](N)C(=O)N=[S@](N)(=O)c1ccc2c(c1)OCO2.Cl [ANASIA-101-1] | 1670 | 64 | – | – | – | –
COc1cccc(S(N)(=O)=NC(=O)[C@@H](N)CC(C)C)c1 (stereo partly drawn) [ANASIA-102, (2S)-2-amino-N-(amino(3-methoxyphenyl)(oxo)-16-sulfaneylidene)-4-methylpentanamide] | – | 16 (≈ 53.4 µM) | > 64 | 385 | – | –
CC(C)C[C@H](N)C(=O)N=[S@@](N)(=O)c1scc(F)c1F [ANASIA-103-2] | – | 16 (≈ 51.4 µM) | – | 210 | – | –
Cc1csc([S@@](N)(=O)=NC(=O)[C@@H](N)CC(C)C)c1C.Cl [ANASIA-104-1] | 241 | 8 | 16 | – | 128 | –
C=Cc1ccc([S@@](N)(=O)=NC(=O)[C@@H](N)CC(C)C)s1 [ANASIA-105-1, (S)-2-amino-N—((S)-amino(oxo)(5-vinylthiophen-2-yl)-λ6-sulfanylidene)-4-methylpentanamide] | 489 | 32 (≈ 106 µM) | – | – | – | –
CC(C)C[C@H](N)C(=O)N=[S@](N)(=O)c1scc(Br)c1Br.Cl [ANASIA-107-1] | 106 | 32 | – | – | – | –
COc1ccc([S@@](N)(=O)=NC(=O)[C@@H](N)CC(C)C)s1.Cl [ANASIA-109-1] | 2560 | 32 | 32 | – | – | –

SMILES | IC50 [1] [nM] | MIC [2, 3] [µg/mL] | MIC [2, 4] [µg/mL] | IC50 [1, 5] [nM] | MIC [2, 6] [µg/mL] | further results
CC(C)C[C@H](N)C(=O)N=S(N)(=O)c1ccccc1O (stereo partly drawn) [ANASIA-113, (2S)-2-amino-N-(amino(2-hydroxyphenyl)(oxo)-λ6-sulfanylidene)-4-methylpentanamide] | – | 64 (≈ 224 µM) | – | 3230 | – | –
CCc1ccsc1[S@@](N)(=O)=NC(=O)[C@@H](N)CC(C)C.Cl [ANASIA-119-1] | 99.7 | 4 | 8 | – | 64 | MIC [2, 8]: 32 µg/mL; MIC [2, 9]: 32 µg/mL; MIC [2, 10]: > 64 µg/mL
CC(C)C[C@H](N)C(=O)N=[S@](N)(=O)c1sc(Cl)cc1Cl.Cl [ANASIA-120-1] | 293 | 32 | – | – | – | –
CC(C)C[C@H](N)C(=O)N=[S@](N)(=O)c1cc(Cl)c(Cl)s1.Cl [ANASIA-121-1] | 41.7 | 8 | 16 | – | > 256 | –
Cc1c([S@@](N)(=O)=NC(=O)[C@@H](N)CC(C)C)csc1Cl.Cl [ANASIA-122-1] | 167 | 32 | – | – | – | –
CC(C)C[C@H](N)C(=O)N=[S@](N)(=O)c1csc(Cl)c1Cl.Cl [ANASIA-125-1] | 304 | – | 64 | – | > 256 | –
CC(C)C[C@H](N)C(=O)N=[S@](N)(=O)c1ccsc1C(F)F.Cl [ANASIA-126-1] | 208 | 5.66 | 32 | – | 256 | MIC [2, 8]: > 64 µg/mL; MIC [2, 9]: > 64 µg/mL; MIC [2, 10]: > 64 µg/mL
CC(C)C[C@H](N)C(=O)N=[S@@](N)(=O)c1ccsc1C(F)F [ANASIA-126-2] | – | – | – | 1720 | – | –
CC(C)C[C@H](N)C(=O)N=[S@](N)(=O)c1nc(C(F)F)cs1 [ANASIA-127-1] | 6890 | – | – | – | – | –
CC(C)C[C@H](N)C(=O)N=[S@@](N)(=O)c1nc(C(F)F)cs1 [ANASIA-127-2] | 192 | – | – | – | – | –
Cc1nc([S@@](N)(=O)=NC(=O)[C@@H](N)CC(C)C)sc1C [ANASIA-128-1] | 2610 | – | – | – | – | –
Cc1nc([S@](N)(=O)=NC(=O)[C@@H](N)CC(C)C)sc1C [ANASIA-128-2] | – | – | – | 3440 | – | –
Cc1nc([S@@](N)(=O)=NC(=O)[C@@H](N)CC(C)C)cs1.Cl [ANASIA-129-1] | 319 | – | 64 | – | 128 | –
CC(C)C[C@H](N)C(=O)N=[S@](N)(=O)c1cscc1-c1ccccc1 [ANASIA-130-1] | 324 | – | – | – | – | –
CC(C)C[C@H](N)C(=O)N=[S@@](N)(=O)c1cscc1-c1ccccc1 [ANASIA-130-2] | – | – | – | 3700 | – | –
CC(C)C[C@H](N)C(=O)N=[S@](N)(=O)c1csc2cccnc12.Cl [ANASIA-131-1] | 530 | 32 | > 64 | – | 256 | –
CC(C)C[C@H](N)C(=O)N=[S@](N)(=O)c1nsc2ccccc12 [ANASIA-132-1] | 4140 | – | – | – | – | –
CCc1csc([S@@](N)(=O)=NC(=O)[C@@H](N)CC(C)C)c1 [ANASIA-133-1, (S)-2-amino-N—((S)-amino(4-ethylthiophen-2-yl)(oxo)-λ6-sulfanylidene)-4-methylpentanamide] | 97.3 | – | 8 (≈ 26.4 µM) | – | 128 (≈ 422 µM) | –
CCc1csc([S@](N)(=O)=NC(=O)[C@@H](N)CC(C)C)c1 [ANASIA-133-2, (S)-2-amino-N—((R)-amino(4-ethylthiophen-2-yl)(oxo)-λ6-sulfanylidene)-4-methylpentanamide] | 6370 | – | – | – | – | –
CC(C)C[C@H](N)C(=O)N=[S@](N)(=O)c1cc(Cl)sc1Cl [ANASIA-134-1] | 5150 | – | – | – | – | –
CC(C)C[C@H](N)C(=O)N=[S@](N)(=O)c1csc(C#N)c1 [ANASIA-135-1] | 5070 | – | – | – | – | –
CC(C)C[C@H](N)C(=O)N=[S@@](N)(=O)c1cc(C#N)cs1 [ANASIA-136-2] | – | – | – | 1410 | – | –
Cc1ncc([S@@](N)(=O)=NC(=O)[C@@H](N)CC(C)C)s1 [ANASIA-137-1] | 2670 | – | – | – | – | –
Cc1ncc([S@](N)(=O)=NC(=O)[C@@H](N)CC(C)C)s1 [ANASIA-137-2] | – | – | – | 8890 | – | –
